Where two headings read alike, the source gives them in different places.
Tests used:
[1] = target: T1, NMDA receptor (N-methyl-D-aspartate receptor, NR1/2A) (Homo sapiens, UniProt Q05586+Q12879); assay: NMDA receptor antagonistic activity assay (whole cell manual patch clamp, channel currents); format: cell-based; conditions: HEK293 cells transiently expressing hNR1/2A; current evoked by 100 μM glutamic acid + 100 μM glycine at -70 mV; read-out: NMDAR antagonistic activity (IC50)
T1 construct: T2A self-cleaving peptide (linker between NR1 and 2A) (C)
T1 sequence (Q12879 23-1464, other chains not shown): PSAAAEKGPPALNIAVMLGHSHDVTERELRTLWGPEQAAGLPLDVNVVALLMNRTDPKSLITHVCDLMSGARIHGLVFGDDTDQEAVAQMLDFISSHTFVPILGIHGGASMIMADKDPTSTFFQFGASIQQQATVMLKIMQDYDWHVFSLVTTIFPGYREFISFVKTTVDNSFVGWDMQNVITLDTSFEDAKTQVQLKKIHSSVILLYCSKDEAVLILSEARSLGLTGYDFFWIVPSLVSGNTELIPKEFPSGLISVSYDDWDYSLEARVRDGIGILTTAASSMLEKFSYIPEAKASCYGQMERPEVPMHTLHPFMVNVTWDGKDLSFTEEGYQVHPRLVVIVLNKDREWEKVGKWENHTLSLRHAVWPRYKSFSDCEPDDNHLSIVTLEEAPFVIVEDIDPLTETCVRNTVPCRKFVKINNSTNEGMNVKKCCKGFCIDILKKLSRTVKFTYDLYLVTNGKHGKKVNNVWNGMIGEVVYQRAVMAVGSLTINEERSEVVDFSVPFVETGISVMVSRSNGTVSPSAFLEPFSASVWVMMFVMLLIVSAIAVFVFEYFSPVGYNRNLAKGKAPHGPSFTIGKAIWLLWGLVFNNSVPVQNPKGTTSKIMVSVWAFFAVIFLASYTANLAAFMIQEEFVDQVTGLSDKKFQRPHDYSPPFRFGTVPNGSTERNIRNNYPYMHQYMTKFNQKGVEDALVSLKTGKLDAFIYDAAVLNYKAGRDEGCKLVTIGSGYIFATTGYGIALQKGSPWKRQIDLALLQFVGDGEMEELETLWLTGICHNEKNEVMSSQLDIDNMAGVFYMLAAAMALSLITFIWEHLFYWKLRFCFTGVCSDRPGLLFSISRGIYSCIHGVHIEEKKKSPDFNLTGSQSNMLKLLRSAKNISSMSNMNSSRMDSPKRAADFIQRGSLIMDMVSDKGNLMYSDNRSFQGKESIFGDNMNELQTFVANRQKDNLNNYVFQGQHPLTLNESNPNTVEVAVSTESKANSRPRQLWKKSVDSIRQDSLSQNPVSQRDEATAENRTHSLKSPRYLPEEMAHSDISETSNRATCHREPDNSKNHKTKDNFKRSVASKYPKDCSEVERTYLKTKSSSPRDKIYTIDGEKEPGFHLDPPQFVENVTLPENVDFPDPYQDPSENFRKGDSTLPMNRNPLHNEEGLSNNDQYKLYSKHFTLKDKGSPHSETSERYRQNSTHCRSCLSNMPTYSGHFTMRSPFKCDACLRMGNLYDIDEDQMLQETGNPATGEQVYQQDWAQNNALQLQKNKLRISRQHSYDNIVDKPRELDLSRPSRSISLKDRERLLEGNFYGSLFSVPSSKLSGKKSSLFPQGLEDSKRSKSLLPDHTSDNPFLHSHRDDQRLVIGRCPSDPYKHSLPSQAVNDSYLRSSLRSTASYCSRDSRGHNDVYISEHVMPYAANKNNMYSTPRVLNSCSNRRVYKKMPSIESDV
Method: The effect of the compounds on NMDA receptor (N-methyl-D-aspartate receptor, NR1/2A) channel currents was tested using the electrophysiological whole cell manual patch clamp method.
The HEK293 cell line was cultured in DMEM medium containing 10% fetal bovine serum at 37° C. with 5% carbon dioxide.
Preparation of compound: on the day of testing, the stock solution of the compound of the present disclosure was diluted with DMSO to an intermediate concentration, which was then further diluted with an extracellular solution (containing 100 μM glutamic acid+100 µM glycine) to obtain the final concentration to be tested. […] Electrophysiological recording
Currents evoked by 100 μM glutamic acid (containing 100 μM glycine) were recorded at room temperature from HEK293 cells transiently expressing NMDA receptor channels using the whole-cell patch clamp technique. Glass microelectrodes were formed by pulling a glass electrode blank (BF150-86-10, Sutter) using a puller. The tip resistance after perfusion of electrode internal solution was about 2-5 MΩ. The glass microelectrodes could be connected to a patch clamp amplifier after being inserted into amplifier probes. […] After whole-cell recording was achieved, the cell was clamped at −70 mV. A gravity-driven rapid administration system was used to apply 100 μM glutamic acid (containing 100 μM glycine) to induce the channel current. After the current stabilized, the 100 μM glutamic acid (containing 100 μM glycine) was administered, and changes in current amplitude were observed. The compounds were administered sequentially from low to high concentration, followed by a final administration of 100 μM glutamic acid (containing 100 μM glycine). Each test concentration of the compound was applied for at least 20 s, and at least 2 cells (n≥2) were tested for each concentration. • d. Data processing
Data were analyzed using pClamp, GraphPad Prism 8, and Excel software.
The IC50 of the compound was calculated using the GraphPad Prism 8 software by equation fitting as follows:
[formula] • where X is the Log value of the test concentration of the test sample, Y is the inhibition percentage at the corresponding concentration, and Bottom and Top are the minimum and maximum inhibition percentages, respectively.

[2] = target: Sigma2 receptor (Homo sapiens, UniProt Q5BJF2); assay: Sigma receptor affinity assay ([3H]-DTG binding), Sigma2R
Chain of Sigma2 receptor (Q5BJF2 whole entry, species assumed): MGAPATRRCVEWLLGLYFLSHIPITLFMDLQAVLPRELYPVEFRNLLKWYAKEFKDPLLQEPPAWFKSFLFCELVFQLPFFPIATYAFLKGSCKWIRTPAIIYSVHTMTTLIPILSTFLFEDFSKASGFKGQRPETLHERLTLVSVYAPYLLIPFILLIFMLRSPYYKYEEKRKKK
Method: (§1) Cell membrane: the membrane protein adopted in the experiment was extracted from an HEK293 cell strain stably expressing Sigmal receptor and an HEK293 cell strain stably expressing Sigma2 receptor, which were constructed by WuXi AppTec.
(§2) • 1) Detection buffer: 50 mM Tris-HCl, pH=7.4, stored at 4° C. • 2) Sigma 1R assay plate washing buffer: 50 mM Tris-HCl, pH=7.4, stored at 4° C.; sigma2R assay plate washing buffer: 50 mM Tris-HCl, 100 mM NaCl, pH=7.4, stored at 4° C. • 3) The compounds were diluted to each working concentration: 4-fold serial gradient dilutions for 8 concentrations.
The affinity inhibition constant Ki was calculated using the Cheng Prusoff equation: […]

[3] = Human liver microsome assay (metabolic stability); format: in vitro ADME; conditions: pH 7.4
In short: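 Human liver microsomes 0.2 mg/mL with 1 μM compound, 3.0 mM MgCl2 and 2.0 mM NADPH in 0.1 M phosphate pH 7.4, 37 °C; sampled at 0–60 min. LC-MS/MS peak-area ratio to internal standard; T1/2 and CLint from slope of ln residual versus time.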

[4] = In vivo metabolism (pharmacokinetic) experiment in mice; design: species or system male ICR mice; conditions: mouse
In short: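 Fasted (12 h) male ICR mice received compound in 5% DMSO/5% Solutol HS15/90% saline at 2.5 mg/kg iv or 10 mg/kg po. Plasma and brain sampled 0.083–8 h (n=3 per time point) and analysed by LC-MS/MS. Parameters derived by non-compartmental analysis.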

[5] = target: Sigma1 receptor (Homo sapiens, UniProt Q99720); assay: Sigma receptor affinity assay ([3H]-DTG binding), Sigma1R
Chain of Sigma1 receptor (Q99720 whole entry): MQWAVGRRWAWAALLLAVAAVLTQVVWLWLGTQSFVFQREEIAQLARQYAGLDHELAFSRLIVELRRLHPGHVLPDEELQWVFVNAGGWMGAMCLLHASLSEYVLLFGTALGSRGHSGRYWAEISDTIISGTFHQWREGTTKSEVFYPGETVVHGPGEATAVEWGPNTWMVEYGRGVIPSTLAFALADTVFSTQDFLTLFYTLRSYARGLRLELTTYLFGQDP
Method: as §1, §2
The cell membrane solution and isotope solution were prepared with the pre-cooled detection buffer, with the following configuration information: the membrane concentration was 10 μg/well, and the final concentration of isotopic ligand [3H]-DTG was 5 nM. • 5) After the test compound and the positive control were diluted to the working concentration, 1 μL was added to each well of the assay plate. […] […]. The affinity inhibition constant Ki was calculated using the Cheng Prusoff equation:

[6] = target: human DAT (Homo sapiens, UniProt Q01959); assay: DAT transporter inhibitory activity test (neurotransmitter transporter uptake assay kit); format: cell-based
Chain of human DAT (Q01959 whole entry): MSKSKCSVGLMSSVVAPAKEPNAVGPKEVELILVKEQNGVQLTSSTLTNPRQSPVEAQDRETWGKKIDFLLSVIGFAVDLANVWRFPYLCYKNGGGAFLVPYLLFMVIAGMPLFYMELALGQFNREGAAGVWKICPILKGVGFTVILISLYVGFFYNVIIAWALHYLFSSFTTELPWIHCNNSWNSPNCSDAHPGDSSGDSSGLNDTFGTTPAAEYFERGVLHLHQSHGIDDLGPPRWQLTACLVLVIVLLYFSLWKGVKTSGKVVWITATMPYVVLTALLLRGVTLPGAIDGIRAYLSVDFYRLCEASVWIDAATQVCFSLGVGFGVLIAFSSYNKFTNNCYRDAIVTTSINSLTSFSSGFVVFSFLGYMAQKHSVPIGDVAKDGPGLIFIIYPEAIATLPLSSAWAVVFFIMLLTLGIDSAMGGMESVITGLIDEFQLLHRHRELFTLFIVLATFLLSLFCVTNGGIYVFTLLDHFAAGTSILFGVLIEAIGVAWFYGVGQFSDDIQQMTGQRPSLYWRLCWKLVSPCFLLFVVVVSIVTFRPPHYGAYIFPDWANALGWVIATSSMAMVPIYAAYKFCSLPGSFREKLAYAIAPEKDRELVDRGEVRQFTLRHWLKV

[7] = target: human NET (Homo sapiens, UniProt P23975); assay: NET transporter inhibitory activity test (neurotransmitter transporter uptake assay kit); format: cell-based
Chain of human NET (P23975 whole entry): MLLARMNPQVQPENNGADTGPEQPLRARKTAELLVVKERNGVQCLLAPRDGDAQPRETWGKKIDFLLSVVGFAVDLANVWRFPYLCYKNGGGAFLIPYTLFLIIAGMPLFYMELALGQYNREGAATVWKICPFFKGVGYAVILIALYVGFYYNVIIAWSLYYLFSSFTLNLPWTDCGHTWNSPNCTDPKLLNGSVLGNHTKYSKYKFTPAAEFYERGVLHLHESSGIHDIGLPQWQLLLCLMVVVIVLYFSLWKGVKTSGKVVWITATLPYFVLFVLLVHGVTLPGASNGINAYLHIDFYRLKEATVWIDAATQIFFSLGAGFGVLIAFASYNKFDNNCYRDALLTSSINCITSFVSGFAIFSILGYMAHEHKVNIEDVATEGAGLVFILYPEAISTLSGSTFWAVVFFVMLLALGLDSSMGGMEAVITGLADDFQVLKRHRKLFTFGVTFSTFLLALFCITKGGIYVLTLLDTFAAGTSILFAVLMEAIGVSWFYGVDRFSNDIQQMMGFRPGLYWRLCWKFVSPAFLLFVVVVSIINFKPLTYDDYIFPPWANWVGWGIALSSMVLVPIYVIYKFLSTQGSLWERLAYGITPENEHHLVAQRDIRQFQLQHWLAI
Method: Transporter inhibition of human DAT and NET expressed in HEK-293 cells was assessed using a neurotransmitter transporter uptake assay kit. The assay was performed as described in the kit instructions, using centanafadine as a positive control. The specific procedures were as follows:
First day cell plating: HEK 293T cells were digested with trypsin, centrifuged, resuspended with a medium, counted, and seeded into a 6 cm culture dish at a density of 3×10^6 cells/well.
Second day cell transfection: HEK 293T cells were subjected to medium exchange, and then A, B tubes were prepared for NET-pcDNA5/FRT plasmid to be transfected. 200 μL of Opti-MEM was added to tube A, and 10 μL of Lipofectamine™ 3000 was added. The mixture was mixed well. 200 μL of Opti-MEM was added to tube B, and 5 μg of NET-pcDNA5/FRT plasmid was added. The mixture was mixed well, and then 10 μL of P3000™ was added to tube B. The mixture was mixed well (plasmid to transfection reagent ratio 1 μg:2 μL). The diluted solution of tube A was added to the diluted solution of tube B. The mixture was mixed well, and incubated at room temperature for 15 min. Finally, the mixture was gently added to the cells that had been subjected to medium exchange, gently shaken to mix, and then incubated overnight in an incubator at 37° C. with a carbon dioxide concentration of 5%. The cells were used for compound functional activity assays 18-20 h after transfection.
• a) After overnight transfection of NET cells, the cells were digested with trypsin, resuspended with DMEM+10% Dialyzed FBS medium, seeded into a 384-well plate at 20000 cells/well, and incubated overnight. Stably transfected DAT cells were digested with trypsin, resuspended with DMEM+10% Dialyzed FBS medium, seeded into a 384-well plate at 2500 cells/well, and incubated overnight. • b) 1× Assay buffer was prepared according to the kit instruction for later use; the positive compound and the test compound were serially diluted with DMSO, and then diluted to 2× with 1× assay buffer. • c) The medium was removed from the 384-well plate by centrifugation. • d) 16 μL of the compound prepared in step b) was added to corresponding experimental wells, wherein an initial concentration of 2× positive control compound was added to the positive control well, and 0.2% DMSO buffer was added to the negative control well. After centrifuging, the plate was incubated at 37° C. for 30 min. • e) A detection reagent was prepared using 1×HBSS, and 16 μL of the detection reagent was added to each well. After centrifuging, the plate was incubated at 37° C. for 60 min. • f) After incubation, the reading at 510 nm under the excitation of the detection wavelength of 425 nm was measured using a microplate reader. Curve fitting and IC50 calculation were performed using GraphPad Prism software nonlinear regression method.

[8] = target: human SERT (Homo sapiens, UniProt P31645); assay: Inhibitory activity assay against 5-HT transporter (neurotransmitter transporter uptake assay kit); format: cell-based; conditions: HEK-293 cells overexpressing human SERT; read-out: 5-HTT (IC50)
Chain of human SERT (P31645 whole entry): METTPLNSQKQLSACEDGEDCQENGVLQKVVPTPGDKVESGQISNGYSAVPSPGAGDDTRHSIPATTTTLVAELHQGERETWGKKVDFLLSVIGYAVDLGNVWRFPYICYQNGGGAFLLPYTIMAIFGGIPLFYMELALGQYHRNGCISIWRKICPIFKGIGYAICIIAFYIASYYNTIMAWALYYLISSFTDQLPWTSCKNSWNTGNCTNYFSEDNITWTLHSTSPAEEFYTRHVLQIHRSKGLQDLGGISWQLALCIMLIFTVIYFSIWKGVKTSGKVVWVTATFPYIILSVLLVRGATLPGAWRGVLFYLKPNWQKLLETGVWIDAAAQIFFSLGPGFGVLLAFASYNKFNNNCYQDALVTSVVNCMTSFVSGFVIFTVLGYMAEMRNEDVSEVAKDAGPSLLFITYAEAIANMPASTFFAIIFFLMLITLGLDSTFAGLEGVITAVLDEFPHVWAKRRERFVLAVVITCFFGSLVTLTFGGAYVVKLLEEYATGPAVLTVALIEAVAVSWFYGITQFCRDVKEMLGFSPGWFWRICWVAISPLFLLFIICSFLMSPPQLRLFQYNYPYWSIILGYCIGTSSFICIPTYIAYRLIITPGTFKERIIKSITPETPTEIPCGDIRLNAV
Method: In HEK-293 cells overexpressing human SERT, the transporter inhibitory effect of the test compound on human SERT was assayed using a Neurotransmitter transporter uptake assay kit (Molecular devices).

[9] = system: male C57 mice; assay: Forced swim test; format: in vivo; conditions: intraperitoneal injection, test 0.5 h after dosing, motionless time in last 4 min
Method: Drug: the compound of the present disclosure was first uniformly mixed with 5% DMSO and 5% Solutol® HS 15. hysiological saline was then added to make up 90% of the final volume. The mixture was prepared at an appropriate concentration immediately before use.
Animal: male C57 mice, about 22 g. The animals were randomly divided into a blank control group and test drug groups, 8 animals per group, and mice in each group were administered either the vehicle or the test compound via intraperitoneal injection.
Experimental steps: the mice were subjected to forced swim test 0.5 h after dosing. The water level in the forced swim device was 45 cm, and the water temperature was 25° C. The mice were placed in an experimental room to adapt to the environment for 1 h before the experiment began. When the experiment began, the mice were placed in the device for 6 min, and the whole process was recorded by a camera. Only the motionless time of the mice in the last 4 min was counted when data were analyzed.

[10] = HEK293 membranes stably expressing Sigma2 receptor, [3H]-DTG 5 nM, read-out: Sigma2R (Ki)
[11] = human liver microsomes 0.2 mg/mL, 1 μM test drug, NADPH, 37° C., read-out: Half-life (t1/2, min)
[12] = human liver microsomes 0.2 mg/mL, 1 μM test drug, NADPH, 37° C., read-out: Intrinsic clearance (Clint, mL/min/kg)
[13] = male ICR mice, oral 10 mg/kg vs iv 2.5 mg/kg, read-out: F (%)
[14] = male ICR mice, oral 10 mg/kg, plasma, read-out: AUC0-inf(po)
[15] = male ICR mice, oral 10 mg/kg, plasma, read-out: Cmax (po)
[16] = male ICR mice, oral 10 mg/kg, plasma, read-out: T1/2 (po) (converted)
[17] = DAT stably transfected HEK cells, read-out: DAT (IC50)

## N^4-methyl-4-phenyl-4,5,6,7-tetrahydrobenzothiazole-2,4-diamine [rac-A39]
[1]
  IC50: 12 µM

## N[C@@]1(c2ccccc2)CCc2ccsc2C1 [S-A19]
[2]; [10]
  Ki: 1.12 µM

## c1ccc([C@]2(N3CCCC3)CCc3[nH]ncc3C2)cc1 [S-A12]
[1]
  IC50: 0.18 µM

## NC1(c2ccccc2)CCc2ccsc2C1 (racemic) [rac-A19, 6-phenyl-4,5,6,7-tetrahydrobenzothiophen-6-amine]
[3]; [11]
  half-life at 1 μM: 80 min
[3]; [12]
  CLint scaled at 1 μM: 50.6 mL/min/kg
[2]
  Ki: 0.523 µM
[4]; [13]
  bioavailability: 48%
[4]; [14]
  AUC(0-inf): 797 ng·h/mL
[4]; [15]
  Cmax: 284 ng/mL
[4]; [16]
  half-life: 2.84 h

## CNC1(c2ccccc2)CCc2sccc2C1 (racemic) [rac-A25, N-methyl-5-phenyl-4,5,6,7-tetrahydrobenzothiophen-5-amine]
[5]
  Ki: 0.28 µM

## CN[C@@]1(c2ccccc2)CCc2ncsc2C1 [S-A13]
[1]
  IC50: 2.5 µM
[2]; [10]
  Ki: 0.257 µM

## c1ccc([C@@]2(N3CCCCC3)CCc3[nH]ncc3C2)cc1 [R-A70]
[1]
  IC50: 16 µM
[6]; [17]
  IC50: 8.4 µM

## Nc1nc2c(s1)CC(c1cccc(Cl)c1)(N1CCCCC1)CC2 (racemic) [rac-A49, 6-(3-chlorophenyl)-6-(piperidin-1-yl)-4,5,6,7-tetrahydrobenzothiazol-2-amine]
[7]
  IC50: 2.5 µM
[8]
  IC50: 1.2 µM
[6]; [17]
  IC50: 0.33 µM
[3]; [11]
  half-life at 1 μM: 117 min
[3]; [12]
  CLint scaled at 1 μM: 34.7 mL/min/kg

## CN[C@]1(c2ccccc2)CCc2ncsc2C1 [R-A13]
[2]; [10]
  Ki: 0.289 µM

## N[C@]1(c2ccccc2)CCc2ccsc2C1 [R-A19]
[8]
  IC50: 1.2 µM
[2]; [10]
  Ki: 1.27 µM

## CNC1(c2ccccc2)CCc2ncsc2C1 (racemic) [rac-A13, N-methyl-6-phenyl-4,5,6,7-tetrahydrobenzothiazol-6-amine]
[3]; [11]
  half-life at 1 μM: 266 min
[3]; [12]
  CLint scaled at 1 μM: 15.2 mL/min/kg
[9]
  Effective dose: 2.5 mg/kg
[2]
  Ki: 0.308 µM
[4]; [13]
  bioavailability: 78%
[4]; [14]
  AUC(0-inf): 845 ng·h/mL
[4]; [15]
  Cmax: 518 ng/mL
[4]; [16]
  half-life: 1.98 h

## Nc1nc2c(s1)CC(c1ccccc1)(N1CCCCC1)CC2 (racemic) [rac-A48, 6-phenyl-6-(piperidin-1-yl)-4,5,6,7-tetrahydrobenzothiazol-2-amine]
[7]; NET transiently transfected HEK 293T cells, read-out: NET (IC50)
  IC50: 4.6 µM
[6]
  IC50: 0.76 µM
[3]; human, microsomes
  CLint scaled at 1 μM: 7.4 mL/min/kg
  half-life at 1 μM: 547 min
[9]
  Effective dose: 1 mg/kg

## CN[C@@]1(c2ccccc2)CCc2nc(N)sc2C1 [S-A3]
[6]; [17]
  IC50: 1.6 µM
[2]; [10]
  Ki: 0.99 µM

## CNC1(c2ccccc2)CCc2nc(N)sc2C1 (racemic) [rac-A3, N^6-methyl-6-phenyl-4,5,6,7-tetrahydrobenzothiazole-2,6-diamine]
[8]
  IC50: 1.2 µM
[6]
  IC50: 1 µM
[9]
  Effective dose: 3 mg/kg
[2]; [10]
  Ki: 0.124 µM
[4]; male, ICR, po, 10 mg/kg, AUC0-inf(po) (ng*h/mL)
  AUC(0-inf): 1160 ng·h/mL
[4]; male, ICR, po, 10 mg/kg, Cmax (po) (ng/mL)
  Cmax: 330 ng/mL
[4]; male, ICR, po, 10 mg/kg, F (%)
  bioavailability: 56%
[4]; male, ICR, po, 10 mg/kg, T1/2 (po) (h)
  half-life: 2.85 h

## c1ccc([C@]2(N3CCCCC3)CCc3[nH]ncc3C2)cc1 [S-A70]
[1]
  IC50: 0.84 µM

## CN[C@]1(c2ccccc2)CCc2nc(N)sc2C1 [R-A3]
[8]
  IC50: 1.2 µM
[2]; [10]
  Ki: 1.76 µM
